According to article PMC6278366, “Synthesis and Evaluation of Anticancer Activities of Novel C-28 Guanidine-Functionalized Triterpene Acid Derivatives” (Molecules, 2018):

Experiments:
[1] = test system: Jurkat (T-lymphoblastic leukemia) cells; test: cells; format: cell-based; settings: Homo sapiens, Jurkat, mean ± SE, at least three experiments in duplicate; viable cells; read-out: IC50 Jurkat
Experimental: (§1) Cells (Jurkat, K562, U937, HeLa, HEK293 and normal Fibroblasts) were purchased from Russian Cell Culture Collection (Institute of Cytology of the Russian Academy of Sciences, Saint Petersburg, Russia) and cultured according to standard mammalian tissue culture protocols and sterile technique. Human cell lines HEK293 and HeLa were obtained from the HPA Culture Collections (Salisbury, UK). All cell lines used in the study were tested and shown to be free of mycoplasma and viral contamination.
(§2) Cells were maintained in RPMI 1640 (Jurkat, K562, U937) (Gibco, Thermo Fisher Scientific, Waltham, MA, USA) supplemented with 4 mM glutamine, 10% FBS (Sigma, Burlington, MA, USA) and 100 units/mL penicillin-streptomycin (Sigma). All types of cells were grown in an atmosphere of 5% CO2 at 37 °C. The cells were subcultures at 2–3 days intervals. Adherent cells (HEK293, HeLa, fibroblasts) were suspended using trypsin/EDTA and counted after they have reached 80% confluency. Cells were then seeded in 24 well plates at 5 × 10^4 cells per well and incubated overnight. Jurkat, K562, U937 cells were subcultured at 2 day intervals with a seeding density of 1 × 10^5 cells per 24 well plates in RPMI with 10% FBS.
(§3) Viability (Live/dead) assessment was performed by staining cells with 7-AAD (7-Aminoactinomycin D) (Biolegend, San Diego, CA, USA). Cells were treated of test compounds with six different concentrations (1, 5, 10, 15, 30 and 60 μM). After treatment, cells were harvested, washed 1–2 times with phosphate-buffered saline (PBS) and centrifuged at 400× g for 5 min. Cell pellets were resuspended in 200 μL of flow cytometry staining buffer (PBS without Ca^2+ and Mg^2+, 2.5% FBS) and stained with 5 μL of 7-AAD staining solutionfor 15 min at room temperature in the dark. Samples were acquired on NovoCyteTM 2000 FlowCytometry System (ACEA, San Diego, CA, USA) equipped with 488 nm argon laser. Detection of 7-AAD emission was collected through a 675/30 nm filter in FL4 channel.

[2] = test system: K562 (chronic myeloid leukemia) cells; test: Cytotoxicity assay (7-AAD viability, flow cytometry), K562; format: cell-based, human; settings: Homo sapiens, K562, mean ± SE, at least three experiments in duplicate; viable cells; read-out: IC50 K562
Experimental: as §1, §2, §3

[3] = test system: U937 (histiocytic lymphoma) cells; test: Cytotoxicity assay (7-AAD viability, flow cytometry), U937; format: cell-based, human; settings: Homo sapiens, U-937, mean ± SE, at least three experiments in duplicate; viable cells; read-out: IC50 U937
Experimental: as §1, §2, §3

[4] = test system: HEK293 (embryonic kidney) cells; test: Cytotoxicity assay (7-AAD viability, flow cytometry), HEK293; format: cell-based, human; settings: Homo sapiens, HEK293, mean ± SE, at least three experiments in duplicate; viable cells
Experimental: as §1
(§4) HEK293, HeLa cell lines and fibroblasts were cultured as monolayers and maintained in Dulbecco’s modified Eagle’s medium (DMEM, Gibco BRL, Waltham, MA, USA) supplemented with 10% foetal bovine serum and 1% penicillin-streptomycin solution at 37 °C in a humidified incubator under a 5% CO2 atmosphere.
as §2, §3

[5] = test system: HeLa (cervical cancer) cells; test: Cytotoxicity assay (7-AAD viability, flow cytometry), HeLa; format: cell-based, human; settings: Homo sapiens, HeLa, mean ± SE, at least three experiments in duplicate; viable cells
Experimental: as §1, §4, §2, §3

[6] = test system: normal human fibroblasts; test: Cytotoxicity assay (7-AAD viability, flow cytometry), normal fibroblasts; format: cell-based; settings: Homo sapiens, Fibroblast, mean ± SE, at least three experiments in duplicate
Experimental: as §1, §4, §2
as §3, with “Cells were treated of test compounds with six different concentrations (1, 5, 10, 15, 30 and 60 μM).” left out

CC(=O)O[C@H]1CC[C@@]2(C)C(CC[C@]3(C)C2CCC2C4C(C(C)C)CC[C@]4(C(=O)NCCN)CC[C@]23C)C1(C)C (stereo partly drawn) [Compound 5, 3β-N-(2-Aminoethyl)-3-O-acetyl-lupane-28-amide]
IC50 [1]: 2.3 ± 0.11 µM
IC50 [2]: 2.8 ± 0.23 µM
IC50 [3]: 1.9 ± 0.34 µM
IC50 [4]: 4.8 ± 0.25 µM
IC50 [5]: 3.9 ± 0.41 µM
IC50 [6]: 5.3 ± 0.27 µM
melting point: 120 to 122 °C

CC(=O)O[C@H]1CC[C@@]2(C)C(CC[C@]3(C)C2CCC2C4C(C(C)C)CC[C@]4(C(=O)NCCCCN)CC[C@]23C)C1(C)C (stereo partly drawn) [Compound 6, 3β-N-(4-Aminobuthyl)-3-O-acetyl-lupane-28-amide]
IC50 [1]: 7.7 ± 0.31 µM
IC50 [2]: 1.8 ± 0.12 µM
IC50 [3]: 4.5 ± 0.43 µM
IC50 [4]: 6.7 ± 0.21 µM
IC50 [5]: 7.1 ± 0.18 µM
IC50 [6]: 8.3 ± 0.29 µM
melting point: 104 to 106 °C

CC(=O)O[C@H]1CC[C@@]2(C)C(CC[C@]3(C)C2CCC2C4C(C(C)C)CC[C@]4(C(=O)NCCCN4CCN(CCCN)CC4)CC[C@]23C)C1(C)C (stereo partly drawn) [Compound 8a, 3β-N-{[3-(3-Aminopropyl)piperazinyl]propyl}-3-O-acetyl-lupane-28-amide]
IC50 [1]: 4.5 ± 0.29 µM
IC50 [2]: 3 ± 0.19 µM
IC50 [3]: 8.2 ± 0.13 µM
IC50 [4]: 5.9 ± 0.14 µM
IC50 [5]: 6.1 ± 0.38 µM
IC50 [6]: 7.3 ± 0.43 µM
melting point: 119 to 121 °C
